Like-named read-outs stand apart in the source and are kept apart here.
Key:
S. aureus = format: cell-based
Protocol: (§1) […] The inoculated test solutions, pH 6.5 to 7.0 were then incubated at 37° C. for sufficient time-periods such that approximately 10^2-10^3 cfu/mL (or 99-99.9% of organisms) killed was achieved.
(§2) A 1 mL aliquot was removed from each respective solution and mixed for one minute with a 1 mL aliquot of Trypticase Soy Broth, then 8 mL of sterile water was added and mixed. Aliquots (1 mL) were then removed from each solution and lawn-inoculated by flooding onto Horse Blood Agar plates for 24-48 hours incubation at 37° C. Visual counts of bacterial growth on the plates were performed.
(§3) Successive generations of E. coli, S. aureus or P. aeruginosa respectively were cultivated via their selection through repeated exposure to a copolymer or Amoxicillin; Organisms surviving treatment were harvested for another cycle of treatment—this process being repeated up to 25 times.

E. coli = format: cell-based
Protocol: as §1, §2, §3

P. aeruginosa = format: cell-based; details: with broth
Protocol: Three test organisms—E. coli, S. aureus and P. aeruginosa—were respectively inoculated to achieve an approximate concentration 10^6 cfu/mL in the test solutions; the test solutions each comprised 19 g sterile distilled water, 1 mL trypticase soy broth and copolymer (Example 1; 383 mg; 5.4% w/w on acrolein added) or Comparative Example 1; 303 mg; 6.7% w/w solution on acrolein added). The inoculated test solutions, pH 6.5 to 7.0 were then incubated at 37° C. for sufficient time-periods such that approximately 10^2-10^3 cfu/mL (or 99-99.9% of organisms) killed was achieved.
as §2, §3

MRSA (S. aureus USA300) = experiment: Example 9: curative treatment by tail injection of infected mice; format: in vivo, BALB/c mice; details: 1 to 7 scale (1 alert and healthy); tail injection 24 hours after infection; Example 1 132 mg/Kg, Comparative Example 1 167 mg/Kg, Oxacillin 500 mg/Kg
Protocol: All experiments were prior-audited, and then supervised to comply with international standards to ensure humane treatment of the animals. All experiments were performed in independent laboratories. In particular, all experiments in Examples 6, 7 and 8 were done in USA within pre-designed protocols specifically to research sepsis and bacteremia; protocols were “blinded” of the identity of test-solutions, to both the supervisor and assistants. All infections were in 100 μL, designed to result in approximately 10^7 cfu/mL infection of mouse-blood; mice were type BALB/c—ten per group in each experiment. Mice were assessed by either sacrifice followed by cfu/g count of bacteria within organ(s), or within a 1 to 7 scale of Health Score, including (1; alert and healthy) to (5; sick and very ruffled coat; euthanized) to (7; deceased). The protocols are tabulated, and follow.
Four groups of each 10 mice were infected with S. aureus superbug (S. aureus USA300), and 24 hours afterwards each group treated curatively with respectively: The copolymer of Example 1 (Ex 1) MW 500 at 132 mg/Kg of mouse; copolymer MW 2500 Comparative Example 1 (CE 1) at 167 mg/Kg of mouse; positive control Oxacillin, 500 mg/Kg and negative control saline. FIG. 5 is a chart showing the number of mice culled due to morbidity or mortality.

[1] = 0.35% w/w solution of Amoxicillin

SMILES: CC1(C)S[C@@H]2[C@H](NC(=O)[C@H](N)c3ccc(O)cc3)C(=O)N2[C@H]1C(=O)O [Amoxicillin]
- generation after which bacterial resistance resulted (S. aureus; [1]): eighth
- Number of generations of microbes to resistance (S. aureus; with broth): 10
- Number of generations of microbes to resistance (S. aureus; without broth): 8
- generation after which bacterial resistance resulted (E. coli; [1]): second
- Number of generations of microbes to resistance (E. coli; with broth): 8
- Number of generations of microbes to resistance (E. coli; without broth): 2
- Number of generations of microbes to resistance (P. aeruginosa): 6

SMILES: Cc1onc(-c2ccccc2)c1C(=O)N[C@@H]1C(=O)N2[C@@H]1SC(C)(C)[C@@H]2C(=O)O [Oxacillin]
- Health Score of surviving mice (MRSA (S. aureus USA300)): 2.5

From patent US10226482B2, “Copolymer and method for treatment of bacterial infection” (RECCE LIMITED, priority 2014, dated 2019)
